Values joined by “and” are separate entries in the source; they are usually repeats but may differ in a detail not shown here. Equal values may be shown once. Read-outs that look alike come from different tables or passages of the source.
Key:
[1] = target: T1, PKM2 N75L (Homo sapiens, UniProt P14618, N75L); test: Ligand binding assay, intrinsic tryptophan fluorescence quenching; settings: 1.6 μM PKM2 N75L, no AA ligand; read-out: Kd, ADP as titrant
T1 construct: made in house; host or cells: E. coli BL21(DE3) pLysS
T1 sequence (P14618 whole entry N75L): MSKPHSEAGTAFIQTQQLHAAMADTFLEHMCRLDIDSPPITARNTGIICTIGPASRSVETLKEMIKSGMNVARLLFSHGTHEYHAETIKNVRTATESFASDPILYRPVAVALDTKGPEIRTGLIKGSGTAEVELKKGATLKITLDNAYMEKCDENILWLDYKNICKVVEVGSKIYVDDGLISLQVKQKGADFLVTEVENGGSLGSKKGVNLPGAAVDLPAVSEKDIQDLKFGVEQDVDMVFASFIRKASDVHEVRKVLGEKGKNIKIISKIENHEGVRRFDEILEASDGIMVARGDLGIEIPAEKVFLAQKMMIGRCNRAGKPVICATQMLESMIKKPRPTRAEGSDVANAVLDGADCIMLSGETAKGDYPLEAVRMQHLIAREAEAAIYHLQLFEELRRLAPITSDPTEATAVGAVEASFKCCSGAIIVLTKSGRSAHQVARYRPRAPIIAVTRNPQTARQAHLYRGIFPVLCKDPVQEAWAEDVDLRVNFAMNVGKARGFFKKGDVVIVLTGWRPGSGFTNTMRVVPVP
Protocol: (§1) The decrease of intrinsic tryptophan fluorescence with increasing substrate concentration was measured using a Cary Eclipse Fluorescence Spectrophotometer (Agilent Technologies, Santa Clara, CA). To determine the binding affinity of wtPKM2 and the variants for the AAs mentioned previously, the enzymes were dissolved in the buffer followed by monitoring fluorescence quenching as the AA concentration was increased. The wavelength used to excite PKM2 was set at 295 nm, while the emission wavelength was 340 nm with slit widths of 5 and 10 nm, respectively. The fluorescence intensity values were used to calculate fractional saturation, which was fitted to the one-site specific binding Eq (3), or the Hill Eq (4) using GraphPad Prism (San Diego, CA), Y=Bmax×X/Kd+X (3) Y=Bmax×x^h/Kdh+x^h (4) where Bmax is maximum binding, Y is fractional saturation, h is the Hill coefficient, Kd is dissociation constant, and X is ligand concentration.

[2] = target: T2, PKM2 R106A (Homo sapiens, UniProt P14618, R106A); test: as above; settings: for decrease of affinity for the AA relative to wtPKM2: PKM2 R106A versus wtPKM2; for weakening of ADP binding affinity versus absence of any AAs: PKM2 R106A in the presence of the labelled AA
T2 construct: made in house; host or cells: E. coli BL21(DE3) pLysS
T2 sequence (P14618 whole entry R106A): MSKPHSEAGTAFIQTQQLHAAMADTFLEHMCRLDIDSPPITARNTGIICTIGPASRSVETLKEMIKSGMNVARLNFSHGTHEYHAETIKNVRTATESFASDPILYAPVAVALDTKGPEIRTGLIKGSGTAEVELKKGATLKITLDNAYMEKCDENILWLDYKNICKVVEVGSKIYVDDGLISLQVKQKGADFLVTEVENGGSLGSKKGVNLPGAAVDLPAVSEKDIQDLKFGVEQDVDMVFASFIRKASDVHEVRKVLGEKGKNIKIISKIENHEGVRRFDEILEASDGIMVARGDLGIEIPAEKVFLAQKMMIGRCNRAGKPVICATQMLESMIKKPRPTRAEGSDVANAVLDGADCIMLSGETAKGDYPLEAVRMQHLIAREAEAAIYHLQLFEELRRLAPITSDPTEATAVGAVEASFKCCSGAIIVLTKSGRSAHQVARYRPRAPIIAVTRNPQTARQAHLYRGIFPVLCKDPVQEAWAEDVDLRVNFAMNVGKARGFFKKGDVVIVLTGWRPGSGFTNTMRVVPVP
Protocol: as §1, with “All ligand binding studies were conducted in a buffer containing 1.6 μM enzyme dissolved in 20 mM Tris-HCl (pH 7.5) and 150 mM KCl. […] The decrease” for “The decrease”

[3] = target: T3, wtPKM2 (Homo sapiens, UniProt P14618); settings: cited from earlier work
T3 construct: made in house; host or cells: E. coli BL21(DE3) pLysS
T3 sequence (P14618 whole entry): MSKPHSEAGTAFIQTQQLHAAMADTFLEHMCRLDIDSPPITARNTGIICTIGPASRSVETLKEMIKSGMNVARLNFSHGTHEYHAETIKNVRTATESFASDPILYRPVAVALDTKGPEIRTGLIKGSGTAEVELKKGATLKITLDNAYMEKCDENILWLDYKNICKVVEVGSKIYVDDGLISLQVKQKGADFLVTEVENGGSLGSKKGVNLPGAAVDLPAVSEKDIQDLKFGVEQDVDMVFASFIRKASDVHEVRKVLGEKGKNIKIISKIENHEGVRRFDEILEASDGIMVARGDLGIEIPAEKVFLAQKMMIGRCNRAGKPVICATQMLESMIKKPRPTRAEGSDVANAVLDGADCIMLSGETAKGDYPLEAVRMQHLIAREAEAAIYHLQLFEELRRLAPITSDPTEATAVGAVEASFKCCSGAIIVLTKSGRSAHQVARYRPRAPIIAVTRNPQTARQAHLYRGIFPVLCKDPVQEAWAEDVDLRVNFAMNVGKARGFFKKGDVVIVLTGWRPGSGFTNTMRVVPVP

[4] = target: T4, PKM2 N70D (Homo sapiens, UniProt P14618, N70D); test: Ligand binding assay, intrinsic tryptophan fluorescence quenching; design: made in house; host or cells: E. coli BL21(DE3) pLysS; settings: no AA ligand, read-out: Kd, ADP as titrant
T4 sequence (P14618 whole entry N70D): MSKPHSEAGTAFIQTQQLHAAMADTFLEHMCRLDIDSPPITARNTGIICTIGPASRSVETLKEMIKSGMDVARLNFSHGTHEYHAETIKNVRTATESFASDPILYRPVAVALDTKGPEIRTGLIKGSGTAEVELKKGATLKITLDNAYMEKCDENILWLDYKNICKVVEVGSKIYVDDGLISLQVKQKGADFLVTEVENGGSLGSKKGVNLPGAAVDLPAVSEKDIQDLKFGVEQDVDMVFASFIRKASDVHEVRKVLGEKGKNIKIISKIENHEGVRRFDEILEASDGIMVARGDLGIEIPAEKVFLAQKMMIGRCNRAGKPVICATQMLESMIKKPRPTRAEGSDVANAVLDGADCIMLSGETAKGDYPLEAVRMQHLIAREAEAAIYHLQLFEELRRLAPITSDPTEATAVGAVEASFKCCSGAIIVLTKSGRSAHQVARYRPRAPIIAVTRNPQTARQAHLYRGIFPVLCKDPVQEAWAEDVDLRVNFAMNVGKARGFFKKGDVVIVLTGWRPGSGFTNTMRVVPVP
Protocol: as §1, with “All ligand binding studies were conducted in a buffer containing 1.6 μM enzyme dissolved in 20 mM Tris-HCl (pH 7.5) and 150 mM KCl. […] The decrease” for “The decrease”

[5] = target: T3, wtPKM2; test: PKM2-LDH coupled pyruvate kinase activity assay; type: biochemical; settings: ADP 0.8 mM; for Vmax / kcat: 10 nM wtPKM2 in presence of 2 mM of the labelled AA, PEP varied
Protocol: (§3) The decrease in absorbance at 340 nm was recorded for a minute to monitor the progress of the reactions.

[6] = target: T1, PKM2 N75L; test: PKM2-LDH coupled pyruvate kinase activity assay; type: biochemical; settings: 4200 nM PKM2 N75L in presence of 2 mM of the labelled AA; PEP 0.025–8 mM, ADP 0.8 mM
Protocol: as §3

[7] = target: T2, PKM2 R106A; test: PKM2-LDH coupled pyruvate kinase activity assay; type: biochemical; settings: for Vmax / kcat: 50 nM PKM2 R106A in presence of 2 mM of the labelled AA (Val 10 mM), PEP 0.025–8 mM, ADP 0.8 mM, Cys data fitted with allosteric sigmoidal equation; for decrease of catalytic efficiency of PKM2 R106A: in the presence of Val (10 mM) and Cys (2 mM), versus no AA
Protocol: as §3

[8] = target: T4, PKM2 N70D; test: PKM2-LDH coupled pyruvate kinase activity assay; settings: 65 nM PKM2 N70D in presence of 2 mM of the labelled AA; PEP 0.025–8 mM, ADP 0.8 mM
Protocol: as §3

[9] = target: T4, PKM2 N70D; test: Gel-filtration study of oligomeric state; design: made in house; host or cells: E. coli BL21(DE3) pLysS; settings: 0.1 mg/ml PKM2 N70D, 10 mM AA
Protocol: (§2) The flow rate was kept constant at 0.5 ml/min using an AKTA Pure FPLC system (GE Healthcare Life Sciences, Marlborough, MA). All AA concentrations used in the experiments were fixed at 10 mM. Column calibration was conducted using gel-filtration molecular weight standards (Bio-Rad) containing bovine thyroglobulin (670 kDa), bovine γ-globulin (158 kDa), chicken ovalbumin (44 kDa), horse myoglobin (17 kDa), and vitamin B12 (1.35 kDa). The eluted protein peak was observed using UV absorbance at 280 nm. To normalize the lowest and highest intensity value, they were set to 0% and 100%, respectively, which was plotted against elution volume in GraphPad Prism (San Diego, CA).

[10] = target: T1, PKM2 N75L; test: Gel-filtration study of oligomeric state; settings: 0.1 mg/ml PKM2 N75L, 10 mM AA
Protocol: as §2

[11] = target: T2, PKM2 R106A; test: Gel-filtration study of oligomeric state; settings: 0.1 mg/ml PKM2 R106A, 10 mM AA
Protocol: as §2

[12] = target: T3, wtPKM2; test: Gel-filtration study of oligomeric state; settings: 0.1 mg/ml wtPKM2, 10 mM AA
Protocol: as §2

[13] = target: T3, wtPKM2; design: method as in PMID 32144209; settings: wtPKM2 in the presence of Val; cited from earlier work
[14] = 2 mM AA, 10 nM enzyme, PEP 0.15–8 mM, versus no AA
[15] = 1.6 μM PKM2 R106A, read-out: Kd for the AA (AA as titrant)

| Vmax [5] [µM/min] | kcat [5] | Vmax [6] [µM/min] | kcat [6] | Vmax [7] [µM/min] | kcat [7] | decrease of affinity for the AA relative to wtPKM2 [2] | Vmax [8] [µM/min] | kcat [8] | oligomeric state change [9] | Kd [2, 15] [µM] | SMILES | other results |
| --- | --- | --- | --- | --- | --- | --- | --- | --- | --- | --- | --- | --- |
| 113 ± 4 | 11.3±0.4 ×10^3 min^-1 | 50 ± 2 | 0.012±0.0 ×10^3 min^-1 | 318 ± 8 | 6.3±0.2 ×10^3 min^-1 | 2–4 fold | 340 ± 8 | 5.2±0.3 ×10^3 min^-1 | dimer/monomer fraction decreased | – | NC(=O)C[C@H](N)C(=O)O [Asn, asparagine] | increase of kcat/Km of wtPKM2 [5, 14]: ~ 8 fold; Kd ([2]; […] PKM2 R106A, read-out: Kd for the AA (AA as titrant)): 42 ± 10 µM |
| 104 ± 2 | 10.4±0.2 ×10^3 min^-1 | 51 ± 3 | 0.012±0.0 ×10^3 min^-1 | 295 ± 6 | 5.9±0.1 ×10^3 min^-1 | – | 307 ± 10 | 4.7±0.1 ×10^3 min^-1 | dimer/monomer fraction decreased | ~70 | N[C@@H](CC(=O)O)C(=O)O [Asp, aspartate] | – |
| 65 ± 7 | 6.5±0.7 ×10^3 min^-1 | 33 ± 3 | 0.008±0.0 ×10^3 min^-1 | 291 ± 9 | 5.8±0.2 ×10^3 min^-1 | 2–4 fold | 334 ± 15 | 5.1±0.2 ×10^3 min^-1 | did not change the oligomeric state | 36 | N[C@@H](CS)C(=O)O [Cys, cysteine] | decrease of kcat/Km of wtPKM2 [5, 14]: ~ 4 fold; decrease of catalytic efficiency of PKM2 R106A [7]: 2–7 fold; weakening of ADP binding affinity versus absence of any AAs [2]: ~ 10 fold; oligomeric state change [10]: the dimer/monomer fraction increased; oligomeric state change [11]: resulted in a mixture of tetramer and dimer/monomer equilibrium; oligomeric state change [12]: shift from an active tetramer to a mixture of tetramer and dimer/monomer equilibrium |
| 74 ± 5 | 7.4±0.5 ×10^3 min^-1 | 34 ± 2 | 0.008±0.0 ×10^3 min^-1 | 346 ± 12 | 6.9±0.2 ×10^3 min^-1 | 2–4 fold | 324 ± 37 | 4.9±0.6 ×10^3 min^-1 | did not change the oligomeric state | ~1600 | CC(C)[C@H](N)C(=O)O [Val, valine] | decrease of kcat/Km of wtPKM2 [5, 14]: ~ 4 fold; decrease of catalytic efficiency of PKM2 R106A [7]: 2–7 fold; weakening of ADP binding affinity versus absence of any AAs [2]: ~ 10 fold; oligomeric state change [10]: the dimer/monomer fraction increased; oligomeric state change [11]: resulted in a mixture of tetramer and dimer/monomer equilibrium; oligomeric state change [13]: shift from an active tetramer to a mixture of tetramer and dimer/monomer equilibrium |

Further lines, the molecule ahead of its results:

| SMILES | Vmax [5] [µM/min] | kcat [5] | Vmax [6] [µM/min] | kcat [6] | Vmax [7] [µM/min] | kcat [7] | decrease of affinity for the AA relative to wtPKM2 [2] | Vmax [8] [µM/min] | kcat [8] | oligomeric state change [9] | Kd [2, 15] [µM] | other results |
| --- | --- | --- | --- | --- | --- | --- | --- | --- | --- | --- | --- | --- |
| Nc1ncnc2c1ncn2[C@@H]1O[C@H](COP(=O)(O)OP(=O)(O)O)[C@@H](O)[C@H]1O [ADP, adenosine diphosphate] | – | – | – | – | – | – | – | – | – | – | – | Kd [1]: 449 ± 48 µM; Kd ([2]; 1.6 μM PKM2 R106A, no AA ligand, read-out: Kd, ADP as titrant): 257 ± 24 µM; Kd ([3]; […] wtPKM2, no AA ligand, marked (2) in S2 Table, read-out: Kd, ADP as titrant): 237 ± 54 µM; Kd [4]: 644 ± 154 µM |
| O=C(COP(=O)(O)O)[C@@H](O)[C@H](O)[C@H](O)COP(=O)(O)O [FBP, fructose-1,6-bisphosphate] | – | – | – | – | – | – | – | – | – | – | – | Kd ([3]; wtPKM2, read-out: Kd for FBP): 0.00098 µM and 0.001 µM |
| C=C(OP(=O)(O)O)C(=O)O [PEP, phosphoenolpyruvate] | – | – | – | – | – | – | – | – | – | – | – | Kd ([3]; read-out: Kd, PEP as titrant, […] wtPKM2, no AA ligand, marked (2) in S2 Table): 10 ± 2 µM |
